Results on 23 compounds are retold here after patent US12264156B2, “Compounds and pharmaceutical compositions thereof for the treatment of diseases” (GALAPAGOS NV, priority 2018, dated 2025).

Holding throughout (format): biochemical
Settings in all cases: ADP-Glo SIK kinase assay
(In general: ADP-Glo first removes unused ATP, then detects ADP through luciferase.)

One experiment deals with T1, SIK1 (Homo sapiens, UniProt P57059).
T1 construct: purchased Carna Biosciences 02-131
The experiment can be described thus: ADP-Glo kinase assay, SIK1. Summed up: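 ADP-Glo, RT throughout. Enz/substrate + ATP, 120 min; ADP-Glo reagent 40 min (ATP depletion); detection reagent 30 min; luminescence read. Neg ctrl 1% DMSO, pos ctrl 10 μM staurosporine, final concs.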

For a further experiment, the target named is T2, SIK3 (Homo sapiens, UniProt Q9Y2K2).
T2 construct: purchased SignalChem S12-11G-100
T2 sequence (Q9Y2K2 whole entry): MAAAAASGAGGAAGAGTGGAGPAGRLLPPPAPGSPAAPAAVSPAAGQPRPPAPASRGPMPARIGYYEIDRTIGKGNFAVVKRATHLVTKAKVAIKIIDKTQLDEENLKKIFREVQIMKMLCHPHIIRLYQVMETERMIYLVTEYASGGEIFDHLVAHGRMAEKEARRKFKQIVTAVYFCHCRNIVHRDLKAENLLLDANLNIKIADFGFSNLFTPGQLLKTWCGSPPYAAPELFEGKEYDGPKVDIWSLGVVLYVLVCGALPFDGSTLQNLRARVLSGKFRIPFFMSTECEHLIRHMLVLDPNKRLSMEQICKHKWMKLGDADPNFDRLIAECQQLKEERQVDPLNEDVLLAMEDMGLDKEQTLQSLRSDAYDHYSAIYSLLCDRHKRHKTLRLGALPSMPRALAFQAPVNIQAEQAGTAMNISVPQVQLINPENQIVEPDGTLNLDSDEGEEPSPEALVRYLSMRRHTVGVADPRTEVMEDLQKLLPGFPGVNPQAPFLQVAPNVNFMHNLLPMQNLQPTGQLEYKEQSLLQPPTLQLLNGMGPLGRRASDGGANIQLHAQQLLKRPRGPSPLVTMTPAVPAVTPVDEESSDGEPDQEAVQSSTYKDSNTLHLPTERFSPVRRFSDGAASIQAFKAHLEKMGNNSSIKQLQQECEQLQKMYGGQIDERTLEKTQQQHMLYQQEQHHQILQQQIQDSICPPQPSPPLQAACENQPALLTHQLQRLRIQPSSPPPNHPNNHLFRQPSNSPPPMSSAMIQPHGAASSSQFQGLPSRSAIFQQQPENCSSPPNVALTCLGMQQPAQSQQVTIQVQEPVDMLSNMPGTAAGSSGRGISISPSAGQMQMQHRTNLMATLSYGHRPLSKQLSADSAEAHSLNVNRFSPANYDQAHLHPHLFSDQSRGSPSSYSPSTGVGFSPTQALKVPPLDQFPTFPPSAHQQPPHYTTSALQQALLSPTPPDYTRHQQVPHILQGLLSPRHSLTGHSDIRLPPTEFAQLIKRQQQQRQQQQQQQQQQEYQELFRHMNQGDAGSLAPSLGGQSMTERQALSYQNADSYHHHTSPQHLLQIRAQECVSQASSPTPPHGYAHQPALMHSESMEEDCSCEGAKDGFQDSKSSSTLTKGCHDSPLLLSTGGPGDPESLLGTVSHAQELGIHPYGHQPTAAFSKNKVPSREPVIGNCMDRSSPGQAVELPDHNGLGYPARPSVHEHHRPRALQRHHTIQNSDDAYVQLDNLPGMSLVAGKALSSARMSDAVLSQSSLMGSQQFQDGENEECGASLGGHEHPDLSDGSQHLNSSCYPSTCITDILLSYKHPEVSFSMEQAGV
The experiment can be described thus: ADP-Glo kinase assay, SIK3. In outline: (§1)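 Kinase reactions (enzyme-substrate mix plus ATP) ran 120 min at room temperature for each of SIK3 and SIK2. Signal came from ADP-Glo: unconsumed ATP removed (40 min), ADP reconverted and detected by luciferase/luciferin (30 min), with luminescence tracking kinase activity. 10 μM staurosporine and 1% DMSO (final) served as controls.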

A further experiment has as its target T3, SIK2 (Homo sapiens, UniProt Q9H0K1).
T3 construct: purchased ThermoFisher Scientific PV4792
Put plainly: ADP-Glo kinase assay, SIK2. In outline:
as §1

T1 sequence (P57059 whole entry): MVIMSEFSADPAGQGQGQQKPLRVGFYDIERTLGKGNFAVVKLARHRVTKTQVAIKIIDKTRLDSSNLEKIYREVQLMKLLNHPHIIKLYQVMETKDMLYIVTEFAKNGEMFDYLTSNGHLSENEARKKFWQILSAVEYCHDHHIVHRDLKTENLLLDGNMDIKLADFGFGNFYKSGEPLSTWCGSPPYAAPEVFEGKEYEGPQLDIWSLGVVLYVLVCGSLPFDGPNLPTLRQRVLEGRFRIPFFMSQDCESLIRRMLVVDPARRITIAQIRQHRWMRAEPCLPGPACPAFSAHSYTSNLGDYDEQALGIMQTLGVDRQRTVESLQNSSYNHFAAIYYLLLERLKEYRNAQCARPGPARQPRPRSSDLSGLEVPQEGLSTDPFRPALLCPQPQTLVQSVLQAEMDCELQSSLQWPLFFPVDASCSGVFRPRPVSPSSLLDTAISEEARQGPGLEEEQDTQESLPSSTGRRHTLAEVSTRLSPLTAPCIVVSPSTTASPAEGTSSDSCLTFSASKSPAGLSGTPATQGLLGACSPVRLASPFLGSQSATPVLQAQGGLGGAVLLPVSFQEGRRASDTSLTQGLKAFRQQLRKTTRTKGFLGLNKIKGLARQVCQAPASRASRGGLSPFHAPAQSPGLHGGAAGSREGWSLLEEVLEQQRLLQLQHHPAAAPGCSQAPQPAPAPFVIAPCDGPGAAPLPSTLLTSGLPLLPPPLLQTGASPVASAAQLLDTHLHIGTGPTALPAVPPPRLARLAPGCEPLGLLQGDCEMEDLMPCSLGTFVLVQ
T3 sequence (Q9H0K1 whole entry): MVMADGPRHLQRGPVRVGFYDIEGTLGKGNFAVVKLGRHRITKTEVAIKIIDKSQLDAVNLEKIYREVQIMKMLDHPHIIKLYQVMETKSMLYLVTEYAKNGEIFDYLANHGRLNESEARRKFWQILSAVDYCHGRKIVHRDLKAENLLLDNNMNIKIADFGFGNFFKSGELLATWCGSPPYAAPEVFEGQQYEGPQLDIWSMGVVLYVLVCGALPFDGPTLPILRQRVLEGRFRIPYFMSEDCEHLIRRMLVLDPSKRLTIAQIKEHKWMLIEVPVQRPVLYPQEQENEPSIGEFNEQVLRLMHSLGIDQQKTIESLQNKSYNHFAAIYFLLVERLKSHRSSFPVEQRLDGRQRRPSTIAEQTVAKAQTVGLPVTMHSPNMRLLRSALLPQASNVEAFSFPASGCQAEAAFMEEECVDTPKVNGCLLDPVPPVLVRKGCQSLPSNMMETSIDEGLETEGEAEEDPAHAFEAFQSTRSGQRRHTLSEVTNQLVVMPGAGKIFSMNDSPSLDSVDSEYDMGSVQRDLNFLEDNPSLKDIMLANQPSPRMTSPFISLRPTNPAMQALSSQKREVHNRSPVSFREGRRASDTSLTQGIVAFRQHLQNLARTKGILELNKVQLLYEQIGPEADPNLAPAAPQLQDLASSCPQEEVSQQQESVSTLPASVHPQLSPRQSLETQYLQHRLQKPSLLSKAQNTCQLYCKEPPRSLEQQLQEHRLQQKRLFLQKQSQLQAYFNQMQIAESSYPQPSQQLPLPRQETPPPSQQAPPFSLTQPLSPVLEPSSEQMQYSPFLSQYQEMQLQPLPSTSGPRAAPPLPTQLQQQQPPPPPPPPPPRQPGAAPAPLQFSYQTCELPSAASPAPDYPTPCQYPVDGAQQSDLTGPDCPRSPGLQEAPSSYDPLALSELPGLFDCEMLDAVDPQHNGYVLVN

In the case of `COc1cc(-c2cnc3cc(OCc4cscn4)ccn23)cc(OC(F)F)c1C(=O)NC1CC1` [compound 46, N-cyclopropyl-2-(difluoromethoxy)-6-methoxy-4-[7-(thiazol-4-ylmethoxy)imidazo[1,2-a]pyridin-3-yl]benzamide], the IC50 at SIK1 was in the range of 10 to 100 nM; against SIK3, 0.01 to 10 nM; against SIK2, 0.01 to 10 nM.

For the compound `CNCCOc1ccn2c(-c3cc4c(c(OC)c3)C(=O)N(CC(F)(F)F)CC4)cnc2c1` [compound 185, 8-methoxy-6-[7-[2-(methylamino)ethoxy]imidazo[1,2-a]pyridin-3-yl]-2-(2,2,2-trifluoroethyl)-3,4-dihydroisoquinolin-1-one], the IC50 on SIK1 lay within 100 to 500 nM; against SIK3, 0.01 to 10 nM; against SIK2, 0.01 to 10 nM.

Take `COc1cc(-c2cnc3cc(OCCC4CC(F)(F)C4)ccn23)cc(OC(F)F)c1C(=O)NC1CC1` [compound 76, N-cyclopropyl-4-[7-[2-(3,3-difluorocyclobutyl)ethoxy]imidazo[1,2-a]pyridin-3-yl]-2-(difluoromethoxy)-6-methoxy-benzamide]: the figures for the IC50 at SIK1, at SIK3 and against SIK2 were 10 to 100 nM, 0.01 to 10 nM and 0.01 to 10 nM, respectively.

Consider `COc1cc(-c2cnc3cc(OCCN(C)c4ccnnc4)ccn23)cc(OC(F)F)c1C(=O)NC1CC1` [compound 240, N-cyclopropyl-2-(difluoromethoxy)-6-methoxy-4-[7-[2-[methyl(pyridazin-4-yl)amino]ethoxy]imidazo [1,2-a]pyridin-3-yl]benzamide], for which the half-maximal inhibitory concentration (IC50) against SIK1, at SIK3 and on SIK2 was 0.01 to 10 nM each time.

Regarding `COc1cc(-c2cnc3cc(OCCN4CCOCC4(C)C)ccn23)cc(OC(F)F)c1C(=O)NC1CC1` [compound 192, N-cyclopropyl-2-(difluoromethoxy)-4-[7-[2-(3,3-dimethylmorpholin-4-yl)ethoxy]imidazo[1,2-a]pyridin-3-yl]-6-methoxy-benzamide], the IC50 against SIK1 lay within 10 to 100 nM; on SIK3 it was 0.01 to 10 nM; at SIK2, 0.01 to 10 nM.

On to `COc1cc(-c2cnc3cc(OCC4(N)CC4)ccn23)cc(OC(F)F)c1C(=O)NC1CC1` [compound 171, 4-[7-[(1-aminocyclopropyl)methoxy]imidazo[1,2-a]pyridin-3-yl]-N-cyclopropyl-2-(difluoromethoxy)-6-methoxy-benzamide], for which the IC50 against SIK1 lay in the range of 10 to 100 nM; against SIK3, 0.01 to 10 nM; against SIK2, 0.01 to 10 nM.

Consider `COc1cc(-c2cnc3cc(OCC(N)C4CC4)ccn23)cc(OC(F)F)c1C(=O)NC1CC1` (stereo not drawn) [compound 137, 4-[7-(2-amino-2-cyclopropyl-ethoxy)imidazo[1,2-a]pyridin-3-yl]-N-cyclopropyl-2-(difluoromethoxy)-6-methoxy-benzamide], for which the results for the 50% inhibitory concentration (IC50) against SIK1, against SIK3 and against SIK2 were 10 to 100 nM, 0.01 to 10 nM and 0.01 to 10 nM, respectively.

As to `COc1cc(-c2cnc3cc(OCC4CN(CC(C)(C)O)C4)ccn23)cc(OC(F)F)c1C(=O)NC1CC1` [Cpd 342, N-cyclopropyl-2-(difluoromethoxy)-4-[7-[[1-(2-hydroxy-2-methyl-propyl)azetidin-3-yl]methoxy]imidazo[1,2-a]pyridin-3-yl]-6-methoxy-benzamide], the IC50 against SIK1 was in the range of 10 to 100 nM; against SIK3, 0.01 to 10 nM; against SIK2 it was 0.01 to 10 nM.

As to `COc1cc(-c2cnc3cc(OCC4CCCCN4C(C)=O)ccn23)cc(OC(F)F)c1C(=O)NC1CC1` (stereo not drawn) [Cpd 141, 4-[7-[(1-acetyl-2-piperidyl)methoxy]imidazo [1,2-a]pyridin-3-yl]-N-cyclopropyl-2-(difluoromethoxy)-6-methoxy-benzamide], the IC50 against SIK1, on SIK3 and against SIK2 was 0.01 to 10 nM throughout.

`COc1cc(-c2cnc3cc(OCC4CCN4)ccn23)cc(OC(F)F)c1C(=O)NC1CC1` (stereo not drawn) [Cpd 109, 4-[7-(azetidin-2-ylmethoxy)imidazo[1,2-a]pyridin-3-yl]-N-cyclopropyl-2-(difluoromethoxy)-6-methoxy-benzamide]: the IC50 at SIK1 is 10 to 100 nM; against SIK3, 0.01 to 10 nM; against SIK2, 0.01 to 10 nM.

Turning to `COc1cc(-c2cnc3cc(OCCc4cnn(C)c4)ccn23)cc(OC(F)F)c1C(=O)NC1CC1` [compound 204, N-cyclopropyl-2-(difluoromethoxy)-6-methoxy-4-[7-[2-(1-methylpyrazol-4-yl)ethoxy]imidazo[1,2-a]pyridin-3-yl]benzamide], the IC50 against SIK1, against SIK3 and against SIK2 was 0.01 to 10 nM throughout.

Consider `CCOC(=O)C1CCCN(CCOc2ccn3c(-c4cc(OC)c(C(=O)NC5CC5)c(OC(F)F)c4)cnc3c2)C1` (stereo not drawn) [compound 392, ethyl 1-[2-[3-[4-(cyclopropylcarbamoyl)-3-(difluoromethoxy)-5-methoxy-phenyl]imidazo[1,2-a]pyridin-7-yl]oxyethyl]piperidine-3-carboxylate], for which the IC50 against SIK1 lay within 10 to 100 nM; on SIK3, 0.01 to 10 nM; on SIK2, 0.01 to 10 nM.

In the case of `COc1cc(-c2cnc3cc(OCC4CCC4)ccn23)cc(OC(F)F)c1C(=O)NC1CC1` [Cpd 71, 4-[7-(cyclobutylmethoxy)imidazo[1,2-a]pyridin-3-yl]-N-cyclopropyl-2-(difluoromethoxy)-6-methoxy-benzamide], the IC50 on SIK1, at SIK3 and at SIK2 was 0.01 to 10 nM in each case.

In the case of `COc1cc(-c2cnc3cc(OCc4ccn(C)n4)ccn23)cc(OC(F)F)c1C(=O)NC1CC1` [compound 200, N-cyclopropyl-2-(difluoromethoxy)-6-methoxy-4-[7-[(1-methylpyrazol-3-yl)methoxy]imidazo[1,2-a]pyridin-3-yl]benzamide], the figures for the IC50 against SIK1, against SIK3 and against SIK2 were 10 to 100 nM, 0.01 to 10 nM and 0.01 to 10 nM, respectively.

For the compound `COc1cc(-c2cnc3cc(OCCN4CCOCC4)ccn23)cc2ccn(CC(F)(F)F)c(=O)c12` [Cpd 221, 8-methoxy-6-[7-(2-morpholinoethoxy)imidazo [1,2-a]pyridin-3-yl]-2-(2,2,2-trifluoroethyl) isoquinolin-1-one], the IC50 against SIK1 was above 500 nM; at SIK3, 10 to 100 nM; against SIK2 it was 10 to 100 nM.

`COc1cc(-c2cnc3cc(OCC4(O)CCN(C(C)C)C4)ccn23)cc(OC(F)F)c1C(=O)NC1CC1` (stereo not drawn) [Cpd 372, N-cyclopropyl-2-(difluoromethoxy)-4-[7-[(3-hydroxy-1-isopropyl-pyrrolidin-3-yl)methoxy]imidazo[1,2-a]pyridin-3-yl]-6-methoxy-benzamide]: the IC50 on SIK1 was in the range of 10 to 100 nM; on SIK3, 0.01 to 10 nM; against SIK2, 0.01 to 10 nM.

`COc1cc(-c2cnc3cc(OCC(O)CN4CC[C@@H](O)C4)ccn23)cc(OC(F)F)c1C(=O)NC1CC1` (stereo partly drawn) [compound 376, N-cyclopropyl-2-(difluoromethoxy)-4-[7-[2-hydroxy-3-[(3R)-3-hydroxypyrrolidin-1-yl]propoxy]imidazo[1,2-a]pyridin-3-yl]-6-methoxy-benzamide]: the IC50 at SIK1 lay in the range of 10 to 100 nM; at SIK3 it was 0.01 to 10 nM; on SIK2 it was 0.01 to 10 nM.

Turning to `COc1cc(-c2cnc3cc(OCC4CCCN4C4COC4)ccn23)cc(OC(F)F)c1C(=O)NC1CC1` (stereo not drawn) [compound 289, N-cyclopropyl-2-(difluoromethoxy)-6-methoxy-4-[7-[[1-(oxetan-3-yl)pyrrolidin-2-yl]methoxy]imidazo[1,2-a]pyridin-3-yl]benzamide], the IC50 on SIK1 lay within 10 to 100 nM; against SIK3, 0.01 to 10 nM; on SIK2, 10 to 100 nM.

As to `COc1cc(-c2cnc3cc(OC[C@@H]4CCN(C5COC5)C4)ccn23)cc(OC(F)F)c1C(=O)NC1CC1` [compound 336, N-cyclopropyl-2-(difluoromethoxy)-6-methoxy-4-[7-[[(3R)-1-(oxetan-3-yl)pyrrolidin-3-yl]methoxy]imidazo[1,2-a]pyridin-3-yl]benzamide], the IC50 against SIK1 was 10 to 100 nM; against SIK3, 0.01 to 10 nM; against SIK2, 0.01 to 10 nM.

As for `COc1cc(-c2cnc3cc(OC[C@H]4CCNC4)ccn23)cc(OC(F)F)c1C(=O)NC1CC1` [Cpd 314, N-cyclopropyl-2-(difluoromethoxy)-6-methoxy-4-[7-[[(3S)-pyrrolidin-3-yl]methoxy]imidazo[1,2-a]pyridin-3-yl]benzamide], the IC50 was in the range of 10 to 100 nM on SIK1, 0.01 to 10 nM against SIK3 and 0.01 to 10 nM against SIK2.

Regarding `COc1cc(-c2cnc3cc(Oc4ccccc4)ccn23)cc(OC(F)F)c1C(=O)NC1CC1` [compound 157, N-cyclopropyl-2-(difluoromethoxy)-6-methoxy-4-(7-phenoxyimidazo[1,2-a]pyridin-3-yl)benzamide], the results for the IC50 at SIK1, on SIK3 and against SIK2 were 100 to 500 nM, 0.01 to 10 nM and 100 to 500 nM, respectively.

`COc1cc(-c2cnc3cc(OC[C@@H](N)CC(C)C)ccn23)cc(OC(F)F)c1C(=O)NC1CC1` [compound 132, 4-[7-[(2S)-2-amino-4-methyl-pentoxy]imidazo[1,2-a]pyridin-3-yl]-N-cyclopropyl-2-(difluoromethoxy)-6-methoxy-benzamide]: the IC50 fell in the range of 10 to 100 nM at SIK1, 0.01 to 10 nM on SIK3 and 0.01 to 10 nM on SIK2.

In the case of `CCC(N)COc1ccn2c(-c3cc(OC)c(C(=O)NC4CC4)c(OC(F)F)c3)cnc2c1` (stereo not drawn) [compound 131, 4-[7-(2-aminobutoxy)imidazo[1,2-a]pyridin-3-yl]-N-cyclopropyl-2-(difluoromethoxy)-6-methoxy-benzamide], the IC50 on SIK1 was in the range of 10 to 100 nM; on SIK3 it was 0.01 to 10 nM; on SIK2, 0.01 to 10 nM.

The term IC50 denotes the concentration at which inhibition is half-maximal.
